Drawing on the RepoRT retention time repository, this text covers LC retention time for 51 compounds.

This series can be described thus: Waters ACQUITY UPLC BEH C18, 100 × 2.1 mm, 1.7 µm, 40 °C, 0.3 to 0.4 mL/min, estimated dead time 0.63 min; A: water + 0.1% formic acid; B: methanol + 0.1% formic acid; gradient (min/%B) 0/0.5 0.1/0.5 10/80 10.1/99.5 12/99.5. The note with it: stereoisomer not certain.

Each structure is given as a SMILES string.

In the case of `O=c1cc(-c2ccc(O)cc2)oc2cc(O)c(C3OC(CO)C(O)C(O)C3O)c(O)c12` (stereo unspecified), the LC retention time was 3.95 min. Consider `C=CC1C(OC2OC(CO)C(O)C(O)C2O)OC=C(C(=O)OC)C1CC1NC(C(=O)O)Cc2c1[nH]c1ccccc21` (stereo unspecified), for which the LC retention time is 4.13 min. Next, `CC1(C)CCC2(C(=O)OC3OC(CO)C(O)C(O)C3O)CCC3(C)C(=CCC4C5(C)CCC(OC6OC(C(=O)O)C(O)C(O)C6OC6OC(CO)C(O)C(O)C6O)C(C)(C)C5CCC43C)C2C1` (stereo unspecified): 6.18 min; `CC1CCC2(NC1)OC1CC3C4CC=C5CC(OC6OC(CO)C(O)C(OC7OC(CO)C(O)C(O)C7O)C6OC6OC(C)C(O)C(O)C6O)CCC5(C)C4CCC3(C)C1C2C` (stereo unspecified): 4.62 min; `C=C(CCC=C(C)C)C1CCC2(C)C1C(O)CC1C3(C)CCC(O)C(C)(C)C3C(OC3OC(CO)C(O)C(O)C3OC3OC(C)C(O)C(O)C3O)CC12C` (stereo unspecified): 7.57 min. Next, `CC(C)=CCCC(C)(OC1OC(CO)C(O)C(O)C1O)C1CCC2(C)C1C(O)CC1C3(C)CCC(OC4OC(CO)C(O)C(O)C4O)C(C)(C)C3CCC12C` (stereo unspecified): 7.66 min. Next, `O=C(C=Cc1ccc(O)cc1)OCC1OC(Oc2c(-c3ccc(O)cc3)oc3cc(O)cc(O)c3c2=O)C(O)C(O)C1O` (stereo unspecified): 5.21 min; `COc1cc(CC(COC2OC(CO)C(O)C(O)C2O)C(COC2OC(CO)C(O)C(O)C2O)Cc2ccc(O)c(OC)c2)ccc1O` (stereo unspecified): 3.67 min; `COc1cc2c(=O)c(-c3ccc(O)cc3)coc2cc1O`: 5.3 min. Turning to `CC(CCC1(O)OC2CC3C4CCC5(O)CC(OC6OC(CO)C(O)C(O)C6O)C(O)CC5(C)C4CCC3(C)C2C1C)COC1OC(CO)C(O)C(O)C1O` (stereo unspecified), the LC retention time was 4.69 min. Next, `CCCCCCCCCCCCC(O)C(O)C(COC1OC(CO)C(O)C(O)C1O)NC(C)=O` (stereo unspecified): 4.55 min; `O=C1C(O)Oc2ccccc2N1O` (stereo unspecified): 1.83 min; `CC=CSSC=CC`: 6.41 min. Next, `CN1C2CCC1CC(OC(=O)C(O)c1ccccc1)C2` (stereo unspecified): 3.15 min. Next, `COc1cc2c(cc1OC)-c1c(C)c3ccc(OC)c(OC)c3c[n+]1CC2`: 5.19 min.

Turning to `Nc1ncnc2c1ncn2C1OC(CO)C(O)C1O` (stereo unspecified), the LC retention time was 1.88 min.

Turning to `CCC(C)C(N)C(=O)NC(CCC(N)=O)C(=O)O` (stereo unspecified), the LC retention time is 1.82 min. For `O=c1c(O)c(-c2ccc(OC3OC(CO)C(O)C(O)C3O)c(O)c2)oc2cc(O)cc(O)c12` (stereo unspecified), the LC retention time was 4.51 min. `CCC=CCC=CC=CC(CCCCCCCC(=O)O)OO` (stereo unspecified): the LC retention time is 6.77 min.

As to `CC=C1CN(C)C2CC3(C(=O)N(OC)c4ccccc43)C3CC1C2CO3` (stereo unspecified), the LC retention time is 4.63 min.

Regarding `OCC1OC(Oc2cc(O)cc(C=Cc3ccc(O)cc3)c2)C(O)C(O)C1O` (stereo unspecified), the LC retention time is 4.05 min. In the case of `CC(=O)N1CCCC1C(=O)O` (stereo unspecified), the LC retention time is 2.46 min. Next, `O=C(O)c1cc(=O)c2ccccc2[nH]1`: 3.11 min; `CCN1CC2(COC)CCC(O)C34C5CC6C(OC)CC(O)(C(CC23)C14)C5C6O` (stereo unspecified): 2.91 min; `CC(=O)OC1CC(C)CNC12OC1CC3C4CCC5CC(OC6OC(CO)C(OC7OC(CO)C(O)C(OC8OCC(O)C(O)C8O)C7OC7OC(CO)C(O)C(O)C7O)C(O)C6O)CCC5(C)C4CCC3(C)C1C2C` (stereo unspecified): 4.78 min. Next, `O=c1cc(-c2ccc(O)c(O)c2)oc2c(C3OC(CO)C(O)C(O)C3O)c(O)c(C3OCC(O)C(O)C3O)c(O)c12` (stereo unspecified): 3.19 min. `COc1cc(CC(=O)O)ccc1O`: the LC retention time is 3.84 min. With `CCC(C)C(NC(=O)C([NH3+])C(C)C)C(=O)[O-]` (stereo unspecified), the LC retention time is 2.88 min.

As for `CC(C)C(NC(=O)C(N)Cc1ccccc1)C(=O)O` (stereo unspecified), the LC retention time is 2.98 min. Regarding `COc1cc(-c2oc3cc(O)cc(O)c3c(=O)c2OC2OC(CO)C(O)C(O)C2O)cc(OC)c1O` (stereo unspecified), the LC retention time is 4.36 min. Consider `CC1CCC2(C(=O)OC3OC(COC4OC(CO)C(OC5OC(C)C(O)C(O)C5O)C(O)C4O)C(O)C(O)C3O)CCC3(C)C(=CCC4C5(C)CC(O)C(O)C(C)(CO)C5C(O)CC43C)C2C1C` (stereo unspecified), for which the LC retention time was 4.88 min. As for `CCC(C)C(NC(=O)C(N)Cc1ccccc1)C(=O)O` (stereo unspecified), the LC retention time was 3.79 min.

For the compound `CC1(C)CC(O)C2(C)CCC3(C)C(=CCC4C5(C)CCC(OC6OC(C(=O)O)C(O)C(O)C6OC6OCC(O)C(O)C6O)C(C)(CO)C5CCC43C)C2C1` (stereo unspecified), the LC retention time is 7.44 min. For `O=C1CCC(C(=O)O)N1` (stereo unspecified), the LC retention time was 1.73 min. For `CC(CSCC(NC(=O)CCC(N)C(=O)O)C(=O)O)C(=O)O` (stereo unspecified), the LC retention time is 2.39 min. Next, `OCC1OC(Oc2cc3c(OC4OC(CO)C(O)C(O)C4O)cc(O)cc3[o+]c2-c2ccc(O)c(O)c2)C(O)C(O)C1O` (stereo unspecified): 2.5 min; `O=c1c(OC2OC(COC3OCC(O)C(O)C3O)C(O)C(O)C2O)c(-c2ccc(O)c(O)c2)oc2cc(O)cc(O)c12` (stereo unspecified): 3.7 min. On to `O=c1c(-c2ccc(O)cc2)coc2c(C3OC(CO)C(O)C(O)C3O)c(O)ccc12` (stereo unspecified), for which the LC retention time is 3.27 min. With `COCC12CCC(OC)C34C5CC6(O)C(OC)C(O)C(OC(C)=O)(C5C6OC(=O)c5ccccc5)C(C(OC)C13)C4N(C)C2` (stereo unspecified), the LC retention time was 5.97 min.

Take `CC1OC(Oc2cc(O)c3c(=O)c(O)c(-c4ccc(O)cc4)oc3c2)C(O)C(O)C1O` (stereo unspecified): the LC retention time is 5.28 min.

With `O=C(O)CCC(NC(=O)Cc1c[nH]c2ccccc12)C(=O)O` (stereo unspecified), the LC retention time was 4.12 min.

Consider `COc1ccc(-c2cc(=O)c3c(O)cc(O)cc3o2)cc1O`, for which the LC retention time is 6.78 min. Next, `CC1=C(O)C(=O)CC(OC2CC(C)(C)CC3C4=CCC5C6(C)CCC(OC7OC(C(=O)O)C(O)C(O)C7OC7OC(C(=O)O)C(O)C(O)C7O)C(C)(CO)C6CCC5(C)C4(C)CCC23C)O1` (stereo unspecified): 7.96 min; `CCC1=CC2CN3CCc4c([nH]c5ccccc45)C(C(=O)OC)(C2)C13` (stereo unspecified): 5.04 min.

As to `CN1c2ccccc2C(=O)N2CCc3c([nH]c4ccccc34)C21` (stereo unspecified), the LC retention time is 7.77 min. With `CCC12C=CCN3CCc4c(n(c5ccccc45)C(O)(C(=O)OC)C1)C32` (stereo unspecified) the figure was 4.26 min; with `CC(C)=CCc1cc(C2Oc3c(ccc(O)c3CC=C(C)C)C(=O)C2O)ccc1O` (stereo unspecified), 10.2 min. As for `O=C(O)C1OC(OC2C(Oc3cc(O)c4c(=O)cc(-c5ccc(O)c(O)c5)oc4c3)OC(C(=O)O)C(O)C2O)C(O)C(O)C1O` (stereo unspecified), the LC retention time was 4 min. As to `COc1c(O)cc2oc(-c3ccc(O)c(O)c3)c(OC3OC(COC4OC(CO)C(O)C(O)C4O)C(O)C(O)C3O)c(=O)c2c1O` (stereo unspecified), the LC retention time was 3.63 min. Next, `COc1cc2c3c(c1OC)-c1cc4c(cc1CC3N(C)CC2)OCO4` (stereo unspecified): 4.89 min. As for `CC(CCC1(O)OC2CC3C4CC=C5CC(OC6OC(CO)C(O)C(OC7OC(CO)C(O)C(O)C7O)C6OC6OC(C)C(O)C(O)C6O)CCC5(C)C4CCC3(C)C2C1C)COC1OC(CO)C(O)C(O)C1O` (stereo unspecified), the LC retention time was 4.99 min.
